According to patent publication US6358885B1, “Substituted phenylheterocyclic herbicides” (Mississippi State University, priority 1992, dated 2002):

Tests used:
Assay in all cases: Test B preemergence/postemergence greenhouse plant response rating 0 to 10
sugar beet = assay type: in vivo, Beta vulgaris; conditions: for Plant response rating, Sugar beet: 0 to 10 scale
Description: (§1) Seeds of barley (Hordeum vulgare), barnyardgrass (Echinochloa crus-galli), bedstraw (Galium aparine), blackgrass (Alopecurus myosuroides), […] (Bromus secalinus), chickweed (Stellaria media), cocklebur (Xanthium pensylvanicum), corn (Zea mays), cotton (Gossypium hirsutum), crabgrass (Digitaria spp.), giant foxtail (Setaria faberii), lambsquarters (Chenopodium album), morningglory (Ipomoea hederacea), rape (Brassica napus), rice (Oryza sativa), sorghum (Sorghum bicolor), soybean (Glycine max), sugar beet (Beta vulgaris), velvetleaf (Abutilon theophrasti), wheat (Triticum aestivum), wild buckwheat (Polygonum convolvulus), and wild oat (Avena fatua) and purple nutsedge. (Cyperus rotundus) tubers were planted and treated preemergence with test chemicals dissolved in a non-phytotoxic solvent. At the same time, these crop and weed species were also treated with postemergence applications of test chemicals. Plants ranged in height from two to eighteen cm (one to four leaf stage) for postemergence treatments. Treated plants and controls were maintained in a greenhouse for twelve to sixteen days, after which all species were compared to controls and visually evaluated. […] A dash (-) response means no test result.

bedstraw = assay type: in vivo, Galium aparine; conditions: for Plant response rating, Bedstraw: 0 to 10 scale
Description: as §1

chickweed = assay type: in vivo, Stellaria media; conditions: for Plant response rating, Chickweed: 0 to 10 scale
Description: as §1

wild buckwheat = assay type: in vivo, Polygonum convolvulus; conditions: for Plant response rating, Wild buckwheat: 0 to 10 scale
Description: as §1

barnyardgrass = assay type: in vivo, Echinochloa crus-galli; conditions: for Plant response rating, Barnyardgrass: 0 to 10 scale
Description: as §1

lambsquarters = assay type: in vivo, Chenopodium album; conditions: for Plant response rating, Lambsquarter: 0 to 10 scale
Description: as §1

crabgrass = assay type: in vivo, Digitaria spp.; conditions: for Plant response rating, Crabgrass: 0 to 10 scale
Description: as §1

velvetleaf = assay type: in vivo, Abutilon theophrasti; conditions: for Plant response rating, Velvetleaf: 0 to 10 scale
Description: as §1

soybean = assay type: in vivo, Glycine max; conditions: for Plant response rating, Soybean: 0 to 10 scale
Description: as §1

cotton = assay type: in vivo, Gossypium hirsutum; conditions: for Plant response rating, Cotton: 0 to 10 scale
Description: as §1

barley = assay type: in vivo, Hordeum vulgare; conditions: for Plant response rating, Barley: 0 to 10 scale
Description: as §1

sorghum = assay type: in vivo, Sorghum bicolor; conditions: for Plant response rating, Sorghum: 0 to 10 scale
Description: as §1

cheatgrass = assay type: in vivo, Bromus secalinus; conditions: for Plant response rating, Cheatgrass: 0 to 10 scale
Description: as §1

rape = assay type: in vivo, Brassica napus; conditions: for Plant response rating, Rape: 0 to 10 scale
Description: as §1

wheat = assay type: in vivo, Triticum aestivum; conditions: for Plant response rating, Wheat: 0 to 10 scale
Description: as §1

purple nutsedge = assay type: in vivo, Cyperus rotundus; conditions: for Plant response rating, Nutsedge: 0 to 10 scale
Description: as §1

wild oat = assay type: in vivo, Avena fatua; conditions: for Plant response rating, Wild oat: 0 to 10 scale
Description: as §1

cocklebur = assay type: in vivo, Xanthium pensylvanicum; conditions: for Plant response rating, Cocklebur: Rate 50 g/ha, 0 to 10 scale
Description: as §1

giant foxtail = assay type: in vivo, Setaria faberii; conditions: for Plant response rating, Giant foxtail: 0 to 10 scale
Description: as §1

corn = assay type: in vivo, Zea mays; conditions: for Plant response rating, Corn: 0 to 10 scale
Description: as §1

morningglory = assay type: in vivo, Ipomoea hederacea; conditions: for Plant response rating, Morningglory: 0 to 10 scale
Description: as §1

blackgrass = assay type: in vivo, Alopecurus myosuroides; conditions: for Plant response rating, Blackgrass: 0 to 10 scale
Description: as §1

rice = assay type: in vivo, Oryza sativa; conditions: for Plant response rating, Rice: 0 to 10 scale
Description: as §1

Structure (SMILES): FCCCOc1cc(-c2nn3c(c2Cl)CCCC3)c(F)cc1Cl [Compound 79]
- Plant response rating, Sugar beet (sugar beet; POSTEMERGENCE, Rate 50 g/ha): 10
- Plant response rating, Sugar beet (sugar beet; PREEMERGENCE, Rate 50 g/ha): 9
- Plant response rating (0 to 10 scale), Sugar beet (sugar beet; PREEMERGENCE, Rate 200 g/ha): 10
- Plant response rating, Sugar beet (sugar beet; Rate 200 g/ha, POSTEMERGENCE): 10
- Plant response rating, Bedstraw (bedstraw; POSTEMERGENCE, Rate 50 g/ha): 5
- Plant response rating, Bedstraw (bedstraw; PREEMERGENCE, Rate 50 g/ha): 2
- Plant response rating (0 to 10 scale), Bedstraw (bedstraw; PREEMERGENCE, Rate 200 g/ha): 7
- Plant response rating, Bedstraw (bedstraw; Rate 200 g/ha, POSTEMERGENCE): 7
- Plant response rating, Chickweed (chickweed; POSTEMERGENCE, Rate 50 g/ha): 4
- Plant response rating, Chickweed (chickweed; PREEMERGENCE, Rate 50 g/ha): 0
- Plant response rating (0 to 10 scale), Chickweed (chickweed; PREEMERGENCE, Rate 200 g/ha): 3
- Plant response rating, Chickweed (chickweed; Rate 200 g/ha, POSTEMERGENCE): 5
- Plant response rating, Wild buckwheat (wild buckwheat; POSTEMERGENCE, Rate 50 g/ha): 10
- Plant response rating, Wild buckwheat (wild buckwheat; PREEMERGENCE, Rate 50 g/ha): 0
- Plant response rating (0 to 10 scale), Wild buckwheat (wild buckwheat; PREEMERGENCE, Rate 200 g/ha): 9
- Plant response rating, Wild buckwheat (wild buckwheat; Rate 200 g/ha, POSTEMERGENCE): 10
- Plant response rating, Barnyardgrass (barnyardgrass; POSTEMERGENCE, Rate 50 g/ha): 4
- Plant response rating, Barnyardgrass (barnyardgrass; PREEMERGENCE, Rate 50 g/ha): 3
- Plant response rating (0 to 10 scale), Barnyardgrass (barnyardgrass; PREEMERGENCE, Rate 200 g/ha): 6
- Plant response rating, Barnyardgrass (barnyardgrass; Rate 200 g/ha, POSTEMERGENCE): 7
- Plant response rating, Lambsquarter (lambsquarters; POSTEMERGENCE, Rate 50 g/ha): 9
- Plant response rating, Lambsquarter (lambsquarters; PREEMERGENCE, Rate 50 g/ha): 9
- Plant response rating (0 to 10 scale), Lambsquarter (lambsquarters; PREEMERGENCE, Rate 200 g/ha): 10
- Plant response rating, Lambsquarter (lambsquarters; Rate 200 g/ha, POSTEMERGENCE): 10
- Plant response rating, Crabgrass (crabgrass; POSTEMERGENCE, Rate 50 g/ha): 3
- Plant response rating, Crabgrass (crabgrass; PREEMERGENCE, Rate 50 g/ha): 4
- Plant response rating (0 to 10 scale), Crabgrass (crabgrass; PREEMERGENCE, Rate 200 g/ha): 6
- Plant response rating, Crabgrass (crabgrass; Rate 200 g/ha, POSTEMERGENCE): 5
- Plant response rating, Velvetleaf (velvetleaf; POSTEMERGENCE, Rate 50 g/ha): 8
- Plant response rating, Velvetleaf (velvetleaf; PREEMERGENCE, Rate 50 g/ha): 5
- Plant response rating (0 to 10 scale), Velvetleaf (velvetleaf; PREEMERGENCE, Rate 200 g/ha): 10
- Plant response rating, Velvetleaf (velvetleaf; Rate 200 g/ha, POSTEMERGENCE): 10
- Plant response rating, Soybean (soybean; POSTEMERGENCE, Rate 50 g/ha): 7
- Plant response rating, Soybean (soybean; PREEMERGENCE, Rate 50 g/ha): 0
- Plant response rating (0 to 10 scale), Soybean (soybean; PREEMERGENCE, Rate 200 g/ha): 0
- Plant response rating, Soybean (soybean; Rate 200 g/ha, POSTEMERGENCE): 8
- Plant response rating, Cotton (cotton; POSTEMERGENCE, Rate 50 g/ha): 10
- Plant response rating, Cotton (cotton; PREEMERGENCE, Rate 50 g/ha): 0
- Plant response rating (0 to 10 scale), Cotton (cotton; PREEMERGENCE, Rate 200 g/ha): 0
- Plant response rating, Cotton (cotton; Rate 200 g/ha, POSTEMERGENCE): 10
- Plant response rating, Barley (barley; POSTEMERGENCE, Rate 50 g/ha): 4
- Plant response rating, Barley (barley; PREEMERGENCE, Rate 50 g/ha): 0
- Plant response rating (0 to 10 scale), Barley (barley; PREEMERGENCE, Rate 200 g/ha): 2
- Plant response rating, Barley (barley; Rate 200 g/ha, POSTEMERGENCE): 4
- Plant response rating, Sorghum (sorghum; POSTEMERGENCE, Rate 50 g/ha): 6
- Plant response rating, Sorghum (sorghum; PREEMERGENCE, Rate 50 g/ha): 0
- Plant response rating (0 to 10 scale), Sorghum (sorghum; PREEMERGENCE, Rate 200 g/ha): 0
- Plant response rating, Sorghum (sorghum; Rate 200 g/ha, POSTEMERGENCE): 7
- Plant response rating, Cheatgrass (cheatgrass; POSTEMERGENCE, Rate 50 g/ha): 3
- Plant response rating, Cheatgrass (cheatgrass; PREEMERGENCE, Rate 50 g/ha): 2
- Plant response rating (0 to 10 scale), Cheatgrass (cheatgrass; PREEMERGENCE, Rate 200 g/ha): 4
- Plant response rating, Cheatgrass (cheatgrass; Rate 200 g/ha, POSTEMERGENCE): 4
- Plant response rating, Rape (rape; POSTEMERGENCE, Rate 50 g/ha): 8
- Plant response rating, Rape (rape; PREEMERGENCE, Rate 50 g/ha): 3
- Plant response rating (0 to 10 scale), Rape (rape; PREEMERGENCE, Rate 200 g/ha): 6
- Plant response rating, Rape (rape; Rate 200 g/ha, POSTEMERGENCE): 9
- Plant response rating, Wheat (wheat; POSTEMERGENCE, Rate 50 g/ha): 5
- Plant response rating, Wheat (wheat; PREEMERGENCE, Rate 50 g/ha): 0
- Plant response rating (0 to 10 scale), Wheat (wheat; PREEMERGENCE, Rate 200 g/ha): 2
- Plant response rating, Wheat (wheat; Rate 200 g/ha, POSTEMERGENCE): 6
- Plant response rating, Nutsedge (purple nutsedge; POSTEMERGENCE, Rate 50 g/ha): 0
- Plant response rating, Nutsedge (purple nutsedge; PREEMERGENCE, Rate 50 g/ha): 0
- Plant response rating (0 to 10 scale), Nutsedge (purple nutsedge; PREEMERGENCE, Rate 200 g/ha): 0
- Plant response rating, Nutsedge (purple nutsedge; Rate 200 g/ha, POSTEMERGENCE): 0
- Plant response rating, Wild oat (wild oat; POSTEMERGENCE, Rate 50 g/ha): 4
- Plant response rating, Wild oat (wild oat; PREEMERGENCE, Rate 50 g/ha): 3
- Plant response rating (0 to 10 scale), Wild oat (wild oat; PREEMERGENCE, Rate 200 g/ha): 6
- Plant response rating, Wild oat (wild oat; Rate 200 g/ha, POSTEMERGENCE): 5
- Plant response rating, Cocklebur (cocklebur; POSTEMERGENCE): 8
- Plant response rating, Cocklebur (cocklebur; PREEMERGENCE): 0
- Plant response rating (0 to 10 scale), Cocklebur (cocklebur; PREEMERGENCE, Rate 200 g/ha): 6
- Plant response rating, Giant foxtail (giant foxtail; POSTEMERGENCE, Rate 50 g/ha): 4
- Plant response rating, Giant foxtail (giant foxtail; PREEMERGENCE, Rate 50 g/ha): 3
- Plant response rating (0 to 10 scale), Giant foxtail (giant foxtail; PREEMERGENCE, Rate 200 g/ha): 9
- Plant response rating, Giant foxtail (giant foxtail; Rate 200 g/ha, POSTEMERGENCE): 6
- Plant response rating, Corn (corn; POSTEMERGENCE, Rate 50 g/ha): 3
- Plant response rating, Corn (corn; PREEMERGENCE, Rate 50 g/ha): 0
- Plant response rating (0 to 10 scale), Corn (corn; PREEMERGENCE, Rate 200 g/ha): 0
- Plant response rating, Corn (corn; Rate 200 g/ha, POSTEMERGENCE): 5
- Plant response rating, Morningglory (morningglory; POSTEMERGENCE, Rate 50 g/ha): 10
- Plant response rating, Morningglory (morningglory; PREEMERGENCE, Rate 50 g/ha): 0
- Plant response rating (0 to 10 scale), Morningglory (morningglory; PREEMERGENCE, Rate 200 g/ha): 7
- Plant response rating, Morningglory (morningglory; Rate 200 g/ha, POSTEMERGENCE): 10
- Plant response rating, Blackgrass (blackgrass; POSTEMERGENCE, Rate 50 g/ha): 3
- Plant response rating, Blackgrass (blackgrass; PREEMERGENCE, Rate 50 g/ha): 1
- Plant response rating (0 to 10 scale), Blackgrass (blackgrass; PREEMERGENCE, Rate 200 g/ha): 5
- Plant response rating, Blackgrass (blackgrass; Rate 200 g/ha, POSTEMERGENCE): 5
- Plant response rating, Rice (rice; POSTEMERGENCE, Rate 50 g/ha): 5
- Plant response rating, Rice (rice; PREEMERGENCE, Rate 50 g/ha): 0
- Plant response rating (0 to 10 scale), Rice (rice; PREEMERGENCE, Rate 200 g/ha): 0
- Plant response rating, Rice (rice; Rate 200 g/ha, POSTEMERGENCE): 6
